Measurements: ChEMBL document CHEMBL5390322, “Discovery of 5-Azaquinoxaline Derivatives as Potent and Orally Bioavailable Allosteric SHP2 Inhibitors” (ACS Med Chem Lett, 2023)
In brackets after ≈: the same amount, converted by molar mass.

Experiments:
[1] = Metabolic stability in mouse hepatocyte assessed as intrinsic clearance incubated for 1 to 2 hrs by LC-MS analysis; assay type: ADME, cell-based; conditions: hepatocytes, time 1-2 hrs, read-out: CLH
[2] = Half life in CD-1 mouse at 1 mg/kg, iv measured upto 8 hrs by LC-MS/MS method; assay type: ADME, organism-based; conditions: in vivo
[3] = Oral bioavailability in CD-1 mouse at 10 mg/kg measured upto 24 hrs by LC-MS/MS method; assay type: ADME, organism-based; conditions: in vivo
[4] = Solubility of the compound in FaSSIF at 1 mg/ml incubated for 24 hrs by LC-MS/MS analysis; assay type: physicochemical
[5] = target: T1, Mitogen-activated protein kinase; ERK1/ERK2 (Homo sapiens, UniProt P27361+P28482); conditions: KYSE520, time 1.0 hrs
T1 sequence (P27361 whole entry, looked up): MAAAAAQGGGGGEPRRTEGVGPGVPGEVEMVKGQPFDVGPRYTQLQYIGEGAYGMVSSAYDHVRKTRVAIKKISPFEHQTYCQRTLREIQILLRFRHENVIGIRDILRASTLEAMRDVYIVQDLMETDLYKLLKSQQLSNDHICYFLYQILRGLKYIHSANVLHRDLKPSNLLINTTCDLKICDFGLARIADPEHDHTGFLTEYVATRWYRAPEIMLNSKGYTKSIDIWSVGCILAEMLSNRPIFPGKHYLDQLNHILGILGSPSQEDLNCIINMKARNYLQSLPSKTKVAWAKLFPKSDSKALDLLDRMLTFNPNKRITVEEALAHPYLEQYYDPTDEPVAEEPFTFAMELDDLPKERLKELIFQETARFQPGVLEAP
T1 sequence (P28482 whole entry, looked up): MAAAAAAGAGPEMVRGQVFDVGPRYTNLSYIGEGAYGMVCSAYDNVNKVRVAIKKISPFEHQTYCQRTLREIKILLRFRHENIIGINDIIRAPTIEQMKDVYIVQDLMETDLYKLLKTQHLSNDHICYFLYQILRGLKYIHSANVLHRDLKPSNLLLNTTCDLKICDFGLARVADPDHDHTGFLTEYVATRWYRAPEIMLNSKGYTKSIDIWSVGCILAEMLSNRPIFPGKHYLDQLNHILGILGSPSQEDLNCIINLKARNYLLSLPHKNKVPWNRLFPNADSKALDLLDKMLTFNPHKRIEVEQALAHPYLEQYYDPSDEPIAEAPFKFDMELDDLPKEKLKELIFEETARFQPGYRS

[6] = Cmax in CD-1 mouse at 10 mg/kg, po measured upto 24 hrs by LC-MS/MS method; assay type: ADME, organism-based; parameters: dose 10 mg/kg, time < 24 hrs, route po; conditions: in vivo
[7] = AUClast in CD-1 mouse at 10 mg/kg, po measured upto 24 hrs by LC-MS/MS method; assay type: ADME, organism-based; parameters: time < 24 hrs, dose 10 mg/kg, route po; conditions: in vivo
[8] = Volume of distribution at steady state in CD-1 mouse at 1 mg/kg, iv measured upto 8 hrs by LC-MS/MS method; assay type: ADME, organism-based; conditions: in vivo, read-out: Vdss
[9] = Tmax in CD-1 mouse at 10 mg/kg, po measured upto 24 hrs by LC-MS/MS method; assay type: ADME, organism-based; conditions: in vivo
[10] = Permeability of compound from apical to basolateral side in LLC-PK1 cells incubated for 2 hrs by LC-MS/MS analysis; assay type: ADME, cell-based, Sus scrofa; conditions: pig, read-out: permeability
[11] = target: T2, Tyrosine-protein phosphatase non-receptor type 11 (Homo sapiens, UniProt Q06124); assay: Allosteric inhibition of recombinant full length 6His-tagged SHP2 (2 to 527 residues) (unknown origin) expressed in Escherichia coli using DiFMUP as substrate incubated for 15 mins by microplate reader analysis
T2 sequence (Q06124 whole entry): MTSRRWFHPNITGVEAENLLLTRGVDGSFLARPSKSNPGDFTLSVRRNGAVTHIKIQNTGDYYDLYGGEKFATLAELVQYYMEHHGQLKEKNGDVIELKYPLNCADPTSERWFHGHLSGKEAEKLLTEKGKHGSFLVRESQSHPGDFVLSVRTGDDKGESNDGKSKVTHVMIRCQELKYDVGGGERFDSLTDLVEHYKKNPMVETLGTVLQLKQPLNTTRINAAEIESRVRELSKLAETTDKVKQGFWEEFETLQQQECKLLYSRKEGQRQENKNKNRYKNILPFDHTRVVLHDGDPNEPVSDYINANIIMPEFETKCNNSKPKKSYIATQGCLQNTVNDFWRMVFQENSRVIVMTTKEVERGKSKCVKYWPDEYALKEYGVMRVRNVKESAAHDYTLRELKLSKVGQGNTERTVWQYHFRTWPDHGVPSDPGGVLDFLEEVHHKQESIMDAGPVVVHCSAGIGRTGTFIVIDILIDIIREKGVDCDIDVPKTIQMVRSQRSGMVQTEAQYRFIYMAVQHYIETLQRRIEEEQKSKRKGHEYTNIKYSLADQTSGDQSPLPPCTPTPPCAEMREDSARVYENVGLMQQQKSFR

[12] = Clearance in CD-1 mouse at 1 mg/kg, iv measured upto 8 hrs by LC-MS/MS method; assay type: ADME, organism-based; conditions: in vivo
[13] = Metabolic stability in human hepatocyte assessed as intrinsic clearance incubated for 1 to 2 hrs by LC-MS analysis; assay type: ADME, cell-based; conditions: hepatocytes, time 1-2 hrs, read-out: CLH
[14] = target: T1, Mitogen-activated protein kinase; ERK1/ERK2; conditions: KYSE520, time 1.0 hrs; remark: listed apart in the source
[15] = Metabolic stability in mouse liver microsome assessed as intrinsic clearance at […] preincubated for 5 mins followed by NADPH addition and measured after 20 mins by LC-MS analysis; assay type: ADME; conditions: liver microsomes, dose 2.5 µM, time 25 min, read-out: CLH
[16] = target: T1, Mitogen-activated protein kinase; ERK1/ERK2; assay: Inhibition of ERK1/2 phosphorylation at Thr202/Tyr204 residues in human KYSE520 cells incubated for 1 hrs by Western blot analysis; assay type: cell-based
[17] = Metabolic stability in human liver microsome assessed as intrinsic clearance at […] preincubated for 5 mins followed by NADPH addition and measured after 20 mins by LC-MS analysis; assay type: ADME; conditions: liver microsomes, dose 2.5 µM, time 25 min, read-out: CLH
MIA PaCa-2 [18] = assay: Antitumor activity against human MIA PaCa-2 cells harboring KRAS G12C mutant xenografted in athymic nude Foxn1nu mouse assessed as tumor growth inhibition at 30 mg/kg,po administrated for 28 days and measured every 3 to 4 days relative to control; assay type: functional; conditions: time 28 day
[19] = AUC(0 to infinity) in CD-1 mouse at 10 mg/kg, po measured upto 24 hrs by LC-MS/MS method; assay type: ADME, organism-based; parameters: time < 24 hrs, dose 10 mg/kg, route po; conditions: in vivo
[20] = Toxicity in athymic nude Foxn1nu mouse xenografted with human MIA PaCa-2 cells harboring KRAS G12C mutant assessed as body weight loss at 30 to 100 mg/kg,po administrated for 28 days and measured every 3 to 4 days relative to control; assay type: organism-based; conditions: in vivo, 672 h, dose 30-100 mg/kg, time 28 day
MIA PaCa-2 [21] = assay: Antitumor activity against human MIA PaCa-2 cells harboring KRAS G12C mutant xenografted in athymic nude Foxn1nu mouse assessed as tumor growth inhibition at 100 mg/kg,po administrated for 28 days and measured every 3 to 4 days relative to control; assay type: functional; conditions: time 28 day

CLint scaled [1] [mL/min/kg] | half-life [2] [h] | bioavailability [3] [%] | solubility at 24 h [4] [µg/mL] | fIC50 [5] [µg/mL] | fIC90 [5] [µg/mL] | Cmax [6] [ng/mL] | Vd [8] [L/kg] | Tmax [9] [h] | Papp A→B at 2 h [10] [×10⁻⁶ cm/s] | clearance [12] [mL/min/kg] | CLint scaled at 10000 µM [13] [mL/min/kg] | fIC50 [14] [µg/mL] | fIC90 [14] [µg/mL] | CLint scaled at […] [15] [mL/min/kg] | IC50 [16] [nM] | CLint scaled at […] [17] [mL/min/kg] | Structure (SMILES) | further results
16 | 1.48 | 58.1 | 894 (≈ 1950 µM) | 0.244 | 2.2 | 533 | 3.46 | 2 | 13 | 34.3 | 5 | 0.244 | 2.2 | 24 | 58 | 3 | C[C@@H]1OCC2(CCN(c3cnc4nc(Sc5ccnc(N)c5Cl)ccc4n3)CC2)[C@@H]1N | AUC(0-t) at 24 h [7]: 2820 ng·h/mL; IC50 [11]: 72 nM
28 | 1.44 | 66.5 | 271 (≈ 552 µM) | 0.06 | 0.535 | 649 | 1.74 | 4 | 11 | 19.2 | 11 | 0.06 | 0.535 | 35 | 5 | 9 | Nc1nccc(Sc2ccc3nc(N4CCC5(CC4)Cc4ncccc4[C@H]5N)cnc3n2)c1Cl | TGI (MIA PaCa-2 [18]): 38%; AUC(0-inf) [19]: 5780 ng·h/mL; Activity [20]: < 5%; TGI (MIA PaCa-2 [21]): 75%
